Our source for the IC50, Activity and GI50 values is ChEMBL document CHEMBL1152223, “Analogues of 2-phenyl-ethenesulfonic acid phenyl ester have dual functions of inhibiting expression of inducible nitric oxide synthase and activating peroxisome proliferator-activated receptor gamma” (Bioorg Med Chem Lett, 2008).

Series [1] concerns the target T1, Peroxisome proliferator-activated receptor gamma (Homo sapiens, UniProt P37231).
T1 sequence (P37231 whole entry): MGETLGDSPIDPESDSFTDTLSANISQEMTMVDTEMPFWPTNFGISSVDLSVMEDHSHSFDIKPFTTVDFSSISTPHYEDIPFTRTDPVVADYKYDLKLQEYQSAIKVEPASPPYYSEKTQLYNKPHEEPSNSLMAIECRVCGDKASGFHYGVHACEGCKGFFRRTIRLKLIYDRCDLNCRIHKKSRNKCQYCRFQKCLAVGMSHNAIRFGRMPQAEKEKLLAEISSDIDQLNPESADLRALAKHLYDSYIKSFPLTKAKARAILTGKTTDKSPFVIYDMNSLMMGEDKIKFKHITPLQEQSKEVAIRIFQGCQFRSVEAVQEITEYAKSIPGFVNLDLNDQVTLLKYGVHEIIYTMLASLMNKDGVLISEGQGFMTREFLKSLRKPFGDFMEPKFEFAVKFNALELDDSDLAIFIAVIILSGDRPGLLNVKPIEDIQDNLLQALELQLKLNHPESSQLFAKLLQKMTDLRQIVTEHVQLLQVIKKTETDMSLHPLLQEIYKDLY
Description: Displacement of [3H]BRL49653 from PPARgamma ligand binding domain by scintillation proximity assay.

For series [2], the system named is RAW264.7. Kind of series: Inhibition of iNOS expression in LPS/IFN-gamma-stimulated mouse RAW264.7 cells at 5 uM. It is filed as functional, cell-based.
Series [3] relates to RAW264.7. Kind of series: Inhibition of iNOS expression in LPS/IFN-gamma-stimulated mouse RAW264.7 cells at 10 uM. It is filed as functional, cell-based.
The subject of series [4] is RAW264.7. Description: Suppression of LPS/IFN-gamma-stimulated NO production in mouse RAW264.7 cells. The format is functional, cell-based.
The nature of series [5]: Cytotoxicity against mouse RAW264.7 cells. It is filed as cell-based.
The subject of series [6] is RAW264.7. Kind of series: Suppression of LPS/IFN-gamma-stimulated NO production in mouse RAW264.7 cells at 10 uM. The format is functional.

Calls of active or inactive are those of the source. The rule behind the calls is not given here. Some results are limits rather than exact numbers.

Usually IC50 stands for the concentration that inhibits the measured activity by half. A low value points to greater potency in that assay. In general, GI50 refers to the concentration that inhibits growth by half. A lower GI50 goes with more potent growth inhibition. As to `O=S(=O)(/C=C/c1ccccc1)Oc1ccc(OCc2ccccc2)cc1`, the IC50 worked out at 0.703 µM in series [1] and 9.3 µM in series [4]. Also, the outcome in series [2] and in series [3] was Active. Also, the concentration for 50% growth inhibition (GI50) in series [5] is greater than 80 µM.

As for `CCOC(=O)c1ccc(OS(=O)(=O)/C=C/c2ccccc2)cc1`, the IC50 in series [1] worked out at 0.747 µM; in series [4], 9.88 µM. The GI50 in series [5] is greater than 80 µM.

Regarding `O=S(=O)(/C=C/c1ccccc1)Oc1ccccc1`, the IC50 was 1.33 µM in series [1] and 6.66 µM in series [4]. Moreover, the outcome in series [2] and in series [3] was Active. Further, the 50% growth inhibitory concentration (GI50) in series [5] was greater than 80 µM.

As to `O=S(=O)(Cc1ccccc1)Oc1ccccc1Cl`, in series [6], the Activity turned out to be 0%.

As for `O=Cc1ccc(OS(=O)(=O)/C=C/c2ccccc2)cc1`, the 50% inhibitory concentration (IC50) in series [1] amounted to 2.1 µM; in series [4], 9.72 µM. The outcome in series [2] and in series [3] was Active. The GI50 in series [5] was greater than 80 µM.

`COc1ccc(NS(=O)(=O)/C=C/c2ccccc2)cc1` showed an Activity in series [6] of 5%.

Take `O=S(=O)(/C=C/c1ccccc1)Oc1ccc2ccccc2c1`: the figures for the IC50 in series [1] and in series [4] were 1.09 µM and 6.18 µM, respectively. Also, the 50% growth inhibitory concentration (GI50) in series [5] is greater than 80 µM.

Turning to `O=S(=O)(Cc1ccccc1)Oc1ccccc1` [PHENYL PHENYLMETHANESULFONATE], the Activity in series [6] is recorded as 3%.

As for `O=S(=O)(CCc1ccccc1)Oc1ccccc1`, the Activity in series [6] is given as 2%.

As to `Cc1ccc(OS(=O)(=O)/C=C/c2ccccc2)cc1`, the IC50 in series [1] turned out to be 0.407 µM; in series [4], 2.77 µM. The result in series [2] and in series [3] was Active. In addition, the 50% growth inhibitory concentration (GI50) in series [5] was greater than 80 µM.

`O=S(=O)(/C=C/c1ccccc1)Oc1c(Cl)cc(Cl)cc1Cl`: the results for the half-maximal inhibitory concentration (IC50) in series [1] and in series [4] were 1.44 µM and 1.83 µM, respectively. The result in series [2] and in series [3] was Active. In addition, the 50% growth inhibitory concentration (GI50) in series [5] was greater than 80 µM.

With `O=S(=O)(/C=C/c1ccccc1)Oc1cccc(Oc2ccccc2)c1`, the half-inhibitory concentration (IC50) in series [1] is 0.382 µM; in series [4], 16.2 µM. For the same compound, the 50% growth inhibitory concentration (GI50) in series [5] was greater than 80 µM.

In series [6], `CCOc1ccc(NS(=O)(=O)/C=C/c2ccccc2)cc1` showed an Activity of 0%.

Regarding `CCCCC/C=C/C=C1/C(=O)C=C[C@@H]1C/C=C\CCCC(=O)O`, the outcome in series [2] and in series [3] was Active. The compound also displayed an IC50 in series [4] of 2.2 µM.

For the compound `O=S(=O)(/C=C/c1ccccc1)Oc1ccc(Cl)cc1`, the IC50 in series [1] amounted to 0.302 µM; in series [4] it was 2.35 µM. Besides, in series [5], halving of growth (GI50) required 75.3 µM.

In series [4], `CN(CCOc1ccc(CC2SC(=O)NC2=O)cc1)c1ccccn1` (stereo unspecified) [ROSIGLITAZONE] gave an IC50 of 17.5 µM.

Regarding `Cc1cccc(OS(=O)(=O)/C=C/c2ccccc2)c1`, the IC50 is 1.19 µM in series [1] and 3.45 µM in series [4]. In series [5], this compound came in with a concentration for 50% growth inhibition (GI50) of 62.5 µM.

The compound `O=C(O)c1cccc(NS(=O)(=O)/C=C/c2ccccc2)c1` yielded an Activity in series [6] of 1%.

Turning to `O=S(=O)(/C=C/c1ccccc1)Nc1ccccc1`, the Activity in series [6] is listed as 4%.

As to `COc1cccc(NS(=O)(=O)/C=C/c2ccccc2)c1`, in series [6], the Activity is listed as 12%.

For the compound `O=S(=O)(CCc1ccccc1)Oc1ccc2ccccc2c1`, in series [6], the Activity came to 6%.

Turning to `O=S(=O)(CCc1ccccc1)Oc1ccc(Cl)cc1`, in series [6], the Activity amounted to 4%.

As for `COc1ccc(OS(=O)(=O)/C=C/c2ccccc2)cc1`, the IC50 amounted to 1.29 µM in series [1] and 7.45 µM in series [4].

On to `CCS(=O)(=O)Oc1cccc(Oc2ccccc2)c1`, for which the Activity in series [6] was found to be 11%.

`Cc1ccc(NS(=O)(=O)/C=C/c2ccccc2)cc1` displayed an Activity in series [6] of 8%.

Turning to `Cc1cccc(OS(=O)(=O)CCc2ccccc2)c1`, the Activity in series [6] is recorded as 0%.

In series [6], `O=S(=O)(Cc1ccccc1)Oc1ccc2ccccc2c1` gave an Activity of 7%.

Take `NS(=O)(=O)c1ccc(NS(=O)(=O)/C=C/c2ccccc2)cc1`: the Activity in series [6] amounted to 0%.

`O=C(O)c1cccc(OS(=O)(=O)CCc2ccccc2)c1` came in with an Activity in series [6] of 6%.

With `CC(=O)Nc1ccc(OS(=O)(=O)/C=C/c2ccccc2)cc1`, the IC50 in series [1] came to 10.7 µM; in series [4], 19.9 µM. The compound further had a GI50 in series [5] greater than 80 µM.

For the compound `O=C(O)c1cccc(OS(=O)(=O)/C=C/c2ccccc2)c1`, the IC50 in series [1] came out at 13.5 µM; in series [4], 21.6 µM. In addition, the GI50 in series [5] is greater than 80 µM.

The compound `O=S(=O)(CCc1ccccc1)Oc1c(Cl)cc(Cl)cc1Cl` showed an Activity in series [6] of 10%.

For `O=S(=O)(/C=C/c1ccccc1)Nc1ccc(Br)cc1`, in series [6], the Activity came to 5%.

As to `O=C(O)c1ccc(NS(=O)(=O)/C=C/c2ccccc2)cc1`, the Activity in series [6] was 2%.
